Reference: patent US9012483B2, “Use of L-Histidine and derivatives thereof” (priority 2011, dated 2015)
“Also recorded” adds a separate entry of the source. Like-named read-outs stand apart in the source and are kept apart here. Marks after values point to notes of the source that are not given here.

Legend:
[1] = system: Gd(DTPA-BMA) and Gd(DTPA) complexes with Cu(II); assay: Kinetics of transmetallation of Gd(DTPA) and Gd(DTPA-BMA) with Cu(II) in the presence of citrate and histidine (spectrophotometry, 300 nm); format: physicochemical; details: [GdL]=2.0 mM, [Cu]=0.1 mM, [cit]=2.0 mM, [His]=0.2-0.8 mM, pH 7.0, 25° C., 0.15 M NaCl
Experimental: In order to have some clues on the kinetics of a possible transmetallation reactions in the presence of citrate (an important counter-ion present in plasma and found to be highly interactive with Gd^3+) and increasing amounts of histidine, the rates of the following reactions have been studied: GdL+Cu^2++His+cit⇄CuL+Gd(cit)+His (1)
In the experiment, the concentration used for Gd^3+ complex (GdL), citrate and Cu^2+ were: 2.0, 2.0 and 0.1 mM, respectively, while the concentration of His was varied (0.2, 0.4, 0.6 and 0.8 mM).
The progress of the exchange reactions (1) has been studied by spectrophotometry (Cary 1E spectrophotometer) at 300 nm, with the use of 1.0 cm quartz cell at 25° C. in 0.15 M NaCl in the pH range 6-8. […]

[2] = rat, oral histidine 4.38 mmol/kg and iv Omniscan 1 mmol/kg
[3] = Pharmacokinetics of histidine in plasma after oral administration; format: in vivo, CD(SD)IGS BR rat; details: for Tmax / AUC(0-inf) / Cmax: male, CD(SD)IGS BR; for Tmax / AUC(0-inf) / Cmax / t1/2λz: rat plasma; for total plasma clearance: rat
Experimental: Aliquots of L-Histidine dihydrochloride powder, accurately weighted, were transferred into 5 and 10 mL volumetric flasks. MilliQ-water was used to dissolve the powder. Standard solution was prepared to obtain CAL samples and CQ samples. The range of the stock standard solution was from 3.46 to 343 μg/mL. All standard solutions were stored at +4° C., in the dark: under these conditions they were considered stable for up to one month.
CAL samples were prepared by using the standard solution at the concentration of 3.46, 34.3, 68.6, 173 and 343 μg/mL and QC samples by using the standard solution at the concentration of 14.3, 67.1, 143 and 268 μg/mL.
CAL and QC samples were prepared by mixing 10 μL of Histidine standard solution with […] of blank rat plasma.
(§1) To these samples 20 μL of trichloroacetic acid (16% w/v) were added to precipitate the plasma proteins. The tubes were vortexed for few seconds and centrifuged for 10 min at 2000 g at room temperature; to 90 μL of the clear supernatant 45 μL of a soaked solution of Sodium carbonate (200 mM) and 90 μL of derivatizing solution (4 mg/mL of Dansyl chloride) were added. The tubes were vortexed for few seconds and incubated under stirring for 30 minutes at 60° C. Five microliters of Methylamine Hydrochloride were added and after cooling for 15 minutes, ten microliters of the sample were injected into the HPLC equipment.
as §1, with “Test plasma samples (S) were prepared by adding 10 μL of Milli-Q water to 90 μL of undiluted plasma or 90 μL of plasma suitably diluted with blank plasma (if sample volume was not enough). To” for “To”, “equipment. All plasma samples collected during the study were stored at −20° C. until analysis.” for “equipment.”
• Species and strain: CD(SD)IGS BR rat • sex of animals: males • Weight and age at treatment: 306-376 g (10-14 weeks old) • Supplier: Charles River Laboratories, Calco (LC), Italy
(§2) Rats were used to determine the pharmacokinetic parameters after administration of three different histidine doses (100, 500 and 1000 mg/kg, three animals for each group).
Plasma concentrations of Histidine as a function of time after injection C(t), were analyzed by non-parametric methods using the computer program WIN-NONLIN 4.0.1. For the tested doses, a non-compartmental analysis was performed using the average plasma concentrations from 3 animals for each time point (except when indicated). For Cmax (peak plasma concentration) and the corresponding tmax ([…]) the observed values were reported. The terminal phase elimination rate constant (λz) was estimated by log-linear regression of those data points visually assessed to be in the terminal phase of the profile. At least three terminal plasma concentrations were used for estimating λz. The terminal elimination half life (t ½ λz, time required for a drug to decline to half of its original plasma value) was calculated as t ½ λz=In 2/λz. Area under the plasma concentration-time curve to the last observable plasma concentration (AUC(0 to t)) was calculated from observed data using the logarithmic trapezoidal method. Total area under the plasma concentration-time curve from zero to infinity (AUC(0 to ∞)) was estimated by AUC(0 to ∞) =AUC(0 to t) +ct/λz, where ct is the predicted concentration at the last quantified time point. AUC defines extent of drug exposure.

[4] = cited from earlier work
[5] = for changes in Gd^3+ content in liver and spleen: versus group 1; for % ID in femour, mean / Gadolinium content in femour, mean: p < 0.01 vs group 1; for Gadolinium content in skin, mean: p < 0.05 vs group 1
Text: L-Histidine was orally administered by gavage, while Omniscan® was intravenously administered.
On the day of scheduled sacrifice, animals were anesthetized with an inhalation agent, sevoflurane, at an respiratory concentration of 3% in induction and 1-2% in maintenance and bled after collection of blood from the abdominal aorta. After exsanguination, liver, spleen, femur and skin of all animals were excised, weighed and prepared for ICP-MS determination of gadolinium content. Sample digestion (spleen and femur) was performed by a microwave system (MARS-5 CEM Corporation).
Liver and skin samples were freeze-dried with a lyophilizer (Alpha-1-2LD Plus, CHRIST) after being frozen at −80° C. for at least 1 h. After drying, dehydrated livers were weighed and then ground in a mortar.
Gadolinium content in organs was reported as μg of Gd.

Gd(DTPA-BMA) = assay: Dissociation of Gd(DTPA-BMA) in artificial plasma, relaxivity at 20 MHz; format: physicochemical; details: pH 7.5, 37° C.
[6] = cited from earlier work; remark: listed apart in the source
[7] = Clinical signs in the pharmacokinetic study after oral histidine; format: in vivo, CD(SD)IGS BR rat; details: rat, up to 1000 mg/kg
Experimental: as §2

Cu(His)2 = assay: Exchange reaction between Gd(DTPA-BMA) and Cu(His)2 without and with citrate (UV spectrum); format: physicochemical; details: Cu(His)2 0.2 mM, Gd(DTPA-BMA) 2.0 mM, pH 6.5, 25° C., 0.15 M NaCl
Experimental: FIG. 3. The UV spectrum of Cu(His)2 in the presence of Gd(DTPA-BMA) excess (Panel A) and in the presence of citrate and Gd(DTPA-BMA) excess (Panel B). (Cu(His)2=0.2 mM, Gd(DTPA-BMA)=2.0 mM) (A). (Cu(His)2=0.2 mM, Gd(DTPA-BMA)=2.0 mM, Citrate=2.0 mM) (B). pH=6.5, 25° C., 0.15 M NaCl.
It is possible to conclude that in body fluids transmetallation reactions may take place between the DTPA-derivative Gd^3+ complexes and endogenous metal ions, like Cu^2+ and Zn^2+. The possibility of the transmetallation reactions can be predicted on the basis of the stability constants of complexes formed between the most important endogenous metals and ligands. The stability constants have been determined for the Gd^3+, Cu^2+ and Zn^2+ complexes of the DTPA, DTPA-BMA, citrate and histidine ligands. […] The species distribution calculations have been experimentally verified by following the exchange reactions between Gd(DTPA-BMA) and Cu(His)2 in the absence and presence of citrate.

[8] = group 2, histidine pretreatment at 30 min
[9] = group 2: oral histidine 4.38 mmol/kg 30 min before Omniscan 1 mmol/kg iv, 24 h
[10] = group 2: oral histidine 4.38 mmol/kg 30 min before Omniscan 1 mmol/kg iv, 24 h, listed as Histidine
[11] = group 2: oral histidine 4.38 mmol/kg 30 min before Omniscan 1 mmol/kg iv, 24 h, listed as histidine
[12] = histidine 30 min before Omniscan versus no histidine pretreatment

N[C@@H](Cc1c[nH]cn1)C(=O)O [L-Histidine]
extent (conversion) of the transmetallation reactions, CuL formed ([1]; listed as Histidine): decrease
rates of the transmetallation reactions ([1]; listed as Histidine): decrease
extent (conversion) of the transmetallation reactions, CuL formed ([1]; listed as histidine): significantly decrease; also recorded: decrease with increasing concentration of histidine
rates of the transmetallation reactions ([1]; listed as histidine): significantly decrease; also recorded: decrease with increasing concentration of histidine
mortality and clinical signs [2]: No mortalities nor changes in clinical signs
Tmax ([3]; 100 mg/kg): 0.5 h
Tmax ([3]; 1000 mg/kg): 0.5 h
AUC(0-inf) ([3]; Histidine 100 mg/kg): 550 µg·h/mL
Cmax ([3]; Histidine 100 mg/kg (0.438 mmol/kg)): 9000 ng/mL
AUC(0-inf) ([3]; Histidine 500 mg/kg): 630 µg·h/mL
Tmax ([3]; Histidine 500 mg/kg): 1 h
Cmax ([3]; Histidine 500 mg/kg (2.192 mmol/kg)): 20900 ng/mL
AUC(0-inf) ([3]; Histidine 1000 mg/kg): 390 µg·h/mL
Cmax ([3]; Histidine 1000 mg/kg (4.38 mmol/kg)): 36000 ng/mL
t1/2λz ([3]; Histidine 100 mg/kg (Table A)): 51 h
t1/2λz ([3]; Histidine 500 mg/kg (Table A)): 47 h
t1/2λz ([3]; Histidine 1000 mg/kg (Table A)): 13 h
total plasma clearance ([3]; 100 mg/kg): 3 mL/min/kg
total plasma clearance ([3]; 500 mg/kg): 13.2 mL/min/kg
total plasma clearance ([3]; 1000 mg/kg): 42.7 mL/min/kg
serum parameters including protein bound zinc, serum and urinary zinc levels ([4]; human subjects, L-histidine up to 4 g/day, 15-days treatment): not shown to be grossly altered
adverse effects ([4]; humans, oral, up to 4-6 g/day for several days): neither important adverse effects nor minor inconveniences
% ID in liver, spleen and skin versus group 1 [5, 8]: not significantly different
changes in Gd^3+ content in liver and spleen [5, 8]: no significant changes
% ID in liver, mean [5, 9]: 0.1094 % ID
% ID in skin, mean [5, 9]: 0.0067 % ID
% ID in spleen, mean [5, 9]: 0.00478 % ID
Gadolinium content in liver, mean [5, 9]: 20.7 nmol/g of tissue
Gadolinium content in spleen, mean [5, 9]: 20.0 nmol/g of tissue
% ID in femour, mean [5, 10]: 0.00166** % ID
Gadolinium content in femour, mean [5, 10]: 6.90** nmol/g of tissue
% ID in femour, mean [5, 11]: 0.00166 % ID
Gadolinium content in femour, mean [5, 11]: 6.90 nmol/g of tissue
Gadolinium content in skin, mean [5, 10]: 11.25* nmol/g of tissue
Gadolinium content in skin, mean [5, 11]: 11.25 nmol/g of tissue
changes in Gd^3+ content in liver and spleen ([5]; group 3, histidine pretreatment at 1 h): no significant changes
decrease in Gd^3+ content in femur (nmol/g tissue) [5, 12]: about 40%
decrease of % ID in femour [5, 12]: about 40%
effect on Gd^3+ accumulation ([5]; histidine treatment 60 min before Omniscan administration): didn't show, in this model, any effect
effect on the increase of relaxivity / extent of dissociation of Gd(DTPA-BMA) (Gd(DTPA-BMA); histidine 0.5 mM and 1.0 mM added to artificial plasma with 1.0 mM Gd(DTPA-BMA)): concentration dependent drop in the increase of the relaxivity values; also recorded: significantly decreases
time to peak levels after oral administration ([6]; L-Histidine in the salt form (HCl), oral route): 30 to 45 min
AUC(0 to ∞) ([6]; healthy volunteers, single oral administration of Histidine at 100 mg/kg): 477 µg·h/mL
clinical signs [7]: No clinical signs were observed

CNC(=O)CN(CCN(CCN(CC(=O)[O-])CC(=O)NC)CC(=O)[O-])CC(=O)[O-].[Gd+3] [Omniscan ®, Gadodiamide]
changes of the UV spectrum of Cu(His)2 (transmetallation) (Cu(His)2; citrate 2.0 mM): the transmetallation reaction takes place
changes of the UV spectrum of Cu(His)2 (transmetallation) (Cu(His)2; no citrate): no changes
relaxivity values as a function of time (dissociation of the complex) (Gd(DTPA-BMA); 1.0 mM Gd(DTPA-BMA) in artificial plasma, no added histidine): relaxivity values increase as a function of time
